# Source: ChEMBL document CHEMBL1201862, “PubChem BioAssay data set” (2004)
#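 Interpolation was linear, between the two tested concentrations surrounding the appropriate level; five concentrations were tested over 48 hours in 96-well plates. GI50: concentration for 50% inhibition of growth.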 Active and inactive are the calls of the source. Cut-off read from the data, not from the text of the source: active = GI50 up to about 1.1 µM and inactive = higher.
# Legend:
# Test in all cases: inhibition of tumour cell growth, NCI panel, 48 h
# A549 = tested on: A549
# 786-0 = tested on: 786-0
# HCT-15 = tested on: HCT-15
# CAKI-1 = tested on: CAKI-1
# SF-295 = tested on: SF-295
# HCT-116 = tested on: HCT-116
# PC-3 = tested on: PC-3
# SF-268 = tested on: SF-268
# DU-145 = tested on: DU-145
# OVCAR-4 = tested on: OVCAR-4
# RXF 393 = tested on: RXF 393
# NCI-H23 = tested on: NCI-H23
# SW-620 = tested on: SW-620
# COLO 205 = tested on: COLO 205
# OVCAR-5 = tested on: OVCAR-5
# NCI-H460 = tested on: NCI-H460
# LOX IMVI = tested on: LOX IMVI
# MOLT-4 = tested on: MOLT-4
SMILES,GI50 (A549),GI50 (786-0),GI50 (HCT-15),GI50 (CAKI-1),GI50 (SF-295),GI50 (HCT-116),GI50 (PC-3),GI50 (SF-268),GI50 (DU-145),GI50 (OVCAR-4),GI50 (RXF 393),GI50 (NCI-H23),GI50 (SW-620),GI50 (COLO 205),GI50 (OVCAR-5),GI50 (NCI-H460),GI50 (LOX IMVI),GI50 (MOLT-4)
N=C(N)NC(=N)Nc1ccc(S(=O)(=O)O)cc1,> 100 µM (inactive),> 100 µM (inactive),> 100 µM,> 100 µM (inactive),> 100 µM (inactive),> 100 µM (inactive),> 100 µM (inactive),> 100 µM (inactive),> 100 µM (inactive),> 100 µM (inactive),> 100 µM (inactive),> 100 µM (inactive),> 100 µM (inactive),> 100 µM (inactive),> 100 µM (inactive),> 100 µM (inactive),> 100 µM (inactive),–
CO[C@@H]1[C@H](O)CC[C@]2(CO2)[C@H]1[C@@]1(C)O[C@@H]1CC=C(C)C,–,> 200 µM (inactive),46.1 µM,> 200 µM (inactive),11 µM (inactive),84.3 µM (inactive),> 200 µM (inactive),> 200 µM (inactive),140 µM (inactive),> 200 µM (inactive),> 200 µM (inactive),> 200 µM (inactive),107 µM (inactive),152 µM (inactive),> 200 µM (inactive),0.617 µM (active),32.7 µM (inactive),80.5 µM (inactive)
O=C1C(NS(=O)(=O)c2ccccc2)=C(N(Cc2ccccc2)Cc2ccccc2)C(=O)c2ccccc21,33 µM (inactive),49.3 µM (inactive),37.7 µM,> 100 µM (inactive),31.9 µM (inactive),36.7 µM (inactive),32.4 µM (inactive),88.1 µM (inactive),48.1 µM (inactive),19.5 µM (inactive),15.5 µM (inactive),15.8 µM (inactive),38.9 µM (inactive),39.6 µM (inactive),> 100 µM (inactive),36.6 µM (inactive),65.3 µM (inactive),21.1 µM (inactive)
c1cc2c3ccsc3c3sccc3c2s1,> 100 µM (inactive),95.9 µM (inactive),> 100 µM,> 100 µM (inactive),> 100 µM (inactive),> 100 µM (inactive),> 100 µM (inactive),> 100 µM (inactive),> 100 µM (inactive),> 100 µM (inactive),> 100 µM (inactive),47.5 µM (inactive),> 100 µM (inactive),> 100 µM (inactive),> 100 µM (inactive),> 100 µM (inactive),> 100 µM (inactive),55.7 µM (inactive)
O=C(NCc1cccc2ccccc12)N/N=C\c1ccc(Cl)cc1,–,> 100 µM (inactive),> 100 µM,43.2 µM (inactive),53.5 µM (inactive),> 100 µM (inactive),> 100 µM (inactive),93.8 µM (inactive),> 100 µM (inactive),> 100 µM (inactive),> 100 µM (inactive),> 100 µM (inactive),88.3 µM (inactive),> 100 µM (inactive),> 100 µM (inactive),67 µM (inactive),> 100 µM (inactive),> 100 µM (inactive)
CN(C)/C=N/C1CCC(C(C)(C)C)CC1 (stereo unspecified),18.7 µM (inactive),17.6 µM (inactive),17.2 µM,18.9 µM (inactive),17.4 µM (inactive),16 µM (inactive),15.1 µM (inactive),28.4 µM (inactive),24.9 µM (inactive),18 µM (inactive),19.2 µM (inactive),17.8 µM (inactive),16.9 µM (inactive),17.3 µM (inactive),17.7 µM (inactive),16.7 µM (inactive),15.5 µM (inactive),12.9 µM (inactive)
COc1cc(C(=O)OCCn2[nH]c(-c3ccc(Cl)cc3)nc2=S)cc(OC)c1OC,98.6 µM (inactive),62.8 µM (inactive),36 µM,37.7 µM (inactive),44.7 µM (inactive),> 100 µM (inactive),> 100 µM (inactive),34.3 µM (inactive),23.6 µM (inactive),95.5 µM (inactive),1.33 µM (inactive),49.1 µM (inactive),> 100 µM (inactive),> 100 µM (inactive),> 100 µM (inactive),> 100 µM (inactive),72.4 µM (inactive),22.9 µM (inactive)
CCOC(=O)c1sc2[n+](c1C)C(=O)/C(=C/c1ccccc1Cl)S2,0.9 µM (active),0.618 µM (active),0.834 µM,0.453 µM (active),0.324 µM (active),0.627 µM (active),0.989 µM (active),3.58 µM (inactive),1.85 µM (inactive),33.3 µM (inactive),15.3 µM (inactive),1.63 µM (inactive),0.883 µM (active),3.13 µM (inactive),14.7 µM (inactive),0.65 µM (active),0.851 µM (active),3.33 µM (inactive)
